pKi: −log10 of the molar value.
target: T1, nuclear factor-kappa B (NF-kB)-inducing kinase (NIK) (Homo sapiens, UniProt Q99558); test: NIK Enzyme Inhibition Assay (Transcreener ADP assay); assay type: biochemical; conditions: purified NIK 0.2-1 nM, 10 uM ATP, fluorescence polarization, Morrison's quadratic equation; read-out: inhibitory value (Ki) for NIK
T1 construct: made in house; host or cells: baculovirus-infected insect cells
T1 sequence (Q99558 whole entry): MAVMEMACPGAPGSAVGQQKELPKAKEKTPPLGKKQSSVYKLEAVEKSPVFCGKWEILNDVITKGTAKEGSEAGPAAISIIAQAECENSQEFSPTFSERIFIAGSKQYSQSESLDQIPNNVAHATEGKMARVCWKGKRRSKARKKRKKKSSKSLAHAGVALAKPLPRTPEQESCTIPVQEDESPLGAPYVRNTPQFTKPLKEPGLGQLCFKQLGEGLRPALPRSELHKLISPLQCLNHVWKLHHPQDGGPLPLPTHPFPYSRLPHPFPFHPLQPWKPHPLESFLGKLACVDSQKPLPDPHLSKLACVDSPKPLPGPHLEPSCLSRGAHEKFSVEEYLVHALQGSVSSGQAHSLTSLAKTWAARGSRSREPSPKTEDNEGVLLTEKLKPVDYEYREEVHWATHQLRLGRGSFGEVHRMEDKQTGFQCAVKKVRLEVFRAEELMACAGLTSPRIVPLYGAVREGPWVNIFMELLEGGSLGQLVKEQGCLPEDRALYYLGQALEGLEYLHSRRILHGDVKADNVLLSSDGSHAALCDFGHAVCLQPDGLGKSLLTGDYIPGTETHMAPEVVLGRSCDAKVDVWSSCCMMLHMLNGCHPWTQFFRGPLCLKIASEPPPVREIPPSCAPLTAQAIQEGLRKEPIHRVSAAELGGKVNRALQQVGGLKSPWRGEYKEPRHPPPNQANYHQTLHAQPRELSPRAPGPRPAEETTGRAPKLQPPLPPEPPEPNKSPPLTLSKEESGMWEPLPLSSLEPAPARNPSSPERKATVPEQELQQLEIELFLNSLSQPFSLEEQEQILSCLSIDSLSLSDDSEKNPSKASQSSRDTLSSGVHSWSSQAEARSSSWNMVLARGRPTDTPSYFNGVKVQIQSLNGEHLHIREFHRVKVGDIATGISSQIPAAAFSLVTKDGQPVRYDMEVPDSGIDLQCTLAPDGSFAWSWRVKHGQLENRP

Row | Compound | pKi
1 | Cc1nc([C@](C)(O)C#Cc2ccc3c(C(=O)N4CCC(F)CC4)nn(-c4nc(N)ncc4Cl)c3c2)no1 [Example T1.1-68, [1-(2-amino-5-chloro-pyrimidin-4-yl)-6-[(3R)-3-hydroxy-3-(5-methyl-1,2,4-oxadiazol-3-yl)but-1-ynyl]indazol-3-yl]-(4-fluoro-1-piperidyl)methanone] | 8.05
2 | CC1CN(C(=O)c2nn(-c3ccnc(N)n3)c3cc(C#CC(C)(O)c4ncccn4)ccc23)CC(C)O1 (stereo not shown) [Example T1.1-69, [1-(2-aminopyrimidin-4-yl)-6-(3-hydroxy-3-pyrimidin-2-yl-but-1-ynyl)indazol-3-yl]-(2,6-dimethylmorpholin-4-yl) methanone] | 8.05
3 | Cc1cc(C(C)(O)C#Cc2ccc3nc(OCC4COC(C)(C)O4)n(-c4ccnc(N)n4)c3c2)no1 (stereo not shown) [Example T1.1-70, 4-[3-(2-aminopyrimidin-4-yl)-2-[(2,2-dimethyl-1,3-dioxolan-4-yl)methoxy]benzimidazol-5-yl]-2-(5-methylisoxazol-3-yl)but-3-yn-2-ol] | 8.05
4 | Cc1nc([C@](C)(O)C#Cc2ccc3c(C(=O)N4CCCCC4)nn(-c4nc(N)ncc4Cl)c3c2)no1 [Example T1.1-71, [1-(2-amino-5-chloro-pyrimidin-4-yl)-6-[(3R)-3-hydroxy-3-(5-methyl-1,2,4-oxadiazol-3-yl)but-1-ynyl]indazol-3-yl]-(1-piperidyl)methanone] | 8.00
5 | CC(O)(C#Cc1ccc2nc(OC3COC3)n(-c3ccnc(N)n3)c2c1)c1ncccn1 (stereo not shown) [Example T1.1-72, 4-[3-(2-aminopyrimidin-4-yl)-2-(oxetan-3-yloxy)benzimidazol-5-yl]-2-pyrimidin-2-yl-but-3-yn-2-ol] | 7.92
6 | Cc1nn(-c2ccnc(N)n2)c2cc(C#CC(C)(O)c3cc[nH]n3)ccc12 (stereo not shown) [Example T1.1-73, 4-[1-(2-aminopyrimidin-4-yl)-3-methyl-indazol-6-yl]-2-(1H-pyrazol-3-yl)but-3-yn-2-ol] | 7.92

These reach a higher pKi. Values come first.

Row | pKi | Compound
7 | 8.22 | CC(O)(C#Cc1ccc2c(CO)nn(-c3ccnc(N)n3)c2c1)c1ncccn1 (stereo not shown) [Example T1.1-61, 4-[1-(2-aminopyrimidin-4-yl)-3-(hydroxymethyl)indazol-6-yl]-2-pyrimidin-2-yl-but-3-yn-2-ol]
8 | 8.22 | Cc1nc2ccc(C#CC(C)(O)c3ncccn3)cc2n1-c1ncnc(N)n1 (stereo not shown) [Example T1.1-62, 4-[3-(4-amino-1,3,5-triazin-2-yl)-2-methyl-benzimidazol-5-yl]-2-pyrimidin-2-yl-but-3-yn-2-ol]
9 | 8.22 | CC(O)(C#Cc1ccc2c(C(=O)N3CC4(COC4)C3)nn(-c3ccnc(N)n3)c2c1)c1ncccn1 (stereo not shown) [Example T1.1-63, [1-(2-aminopyrimidin-4-yl)-6-(3-hydroxy-3-pyrimidin-2-yl-but-1-ynyl)indazol-3-yl]-(2-oxa-6-azaspiro[3.3]heptan-6-yl)methanone]
10 | 8.22 | CN(C)C(=O)c1nn(-c2ccnc(N)n2)c2cc(C#CC(C)(O)c3ncccn3)ccc12 (stereo not shown) [Example T1.1-64, 1-(2-aminopyrimidin-4-yl)-6-(3-hydroxy-3-pyrimidin-2-yl-but-1-ynyl)-N,N-dimethyl-indazole-3-carboxamide]
11 | 8.15 | Cc1nc([C@](C)(O)C#Cc2ccc3c(CN4CC(F)(F)C4)nn(-c4ccnc(N)n4)c3c2)no1 [Example T1.1-65, (2R)-4-[1-(2-aminopyrimidin-4-yl)-3-[(3,3-difluoroazetidin-1-yl)methyl]indazol-6-yl]-2-(5-methyl-1,2,4-oxadiazol-3-yl)but-3-yn-2-ol]
12 | 8.15 | CC(O)(C#Cc1ccc2c(C(=O)N3CC4CC3CO4)nn(-c3ccnc(N)n3)c2c1)c1ncccn1 (stereo not shown) [Example T1.1-66, [1-(2-aminopyrimidin-4-yl)-6-(3-hydroxy-3-pyrimidin-2-yl-but-1-ynyl)indazol-3-yl]-(2-oxa-5-azabicyclo[2.2.1]heptan-5-yl)methanone]
13 | 8.10 | CC(C)(O)c1nn(-c2ccnc(N)n2)c2cc(C#CC3(O)CCc4cccnc43)ccc12 (stereo not shown) [Example T1.1-67, 7-[2-[1-(2-aminopyrimidin-4-yl)-3-(1-hydroxy-1-methyl-ethyl)indazol-6-yl]ethynyl]-5,6-dihydrocyclopenta[b] pyridin-7-ol]

Reference: patent US8901313B2, “6,5-heterocyclic propargylic alcohol compounds and uses therefor” (Genentech, Inc., priority 2011, dated 2014)
